The record followed here is US20230203043A1, “NOVEL IMIDAZOPYRAZINE DERIVATIVES” (Hoffmann-La Roche Inc., priority 2020, published 2023).

Counter-ions that a name gives are not always drawn.

For the first experiment, the system named is Acinetobacter baumannii ATCC17961. The experiment is described as follows: Antimicrobial susceptibility testing: 90% growth inhibitory concentration (IC90) determination in Iso-Sensitest broth, OD600 growth. As to conditions: Acinetobacter baumannii, ATCC17961, 16 h, read-out: A. baumannii ATCC 17961 IC90 (uM), strain ATCC 17961, OD600 growth over 16 h. Type of experiment: cell-based. The procedure, abridged:
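Growth monitored at 600 nm every 20 min for 16 h at 35±2 °C, inoculum ~5×10^(5) CFU/ml in Iso-Sensitest medium. Compounds in 10-point twofold series, e.g. 50 to 0.097 μM final; 90% inhibitory concentration taken from log-phase growth.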
The term IC90 denotes the concentration at which the effect reaches the 90% level. In the case of `CCc1cc(Nc2nccn3c(-c4cn(CC#N)nc4C(F)(F)F)cnc23)ccc1C(=O)NCC(=O)N[C@H]1CCNC1` [Example 758, 4-[[3-[1-(cyanomethyl)-3-(trifluoromethyl)pyrazol-4-yl]imidazo[1,2-a]pyrazin-8-yl]amino]-2-ethyl-N-[2-oxo-2-[[(3S)-pyrrolidin-3-yl]amino]ethyl]benzamide formate], the IC90 was found to be 0.693 µM.

Consider `Cc1cc(Nc2nccn3c(-c4cn(CC#N)nc4C(F)(F)F)cnc23)ccc1C(=O)N[C@H](C)C(=O)N1CC[C@@H](N)C1` [Example 761, N-[(1R)-2-[(3R)-3-aminopyrrolidin-1-yl]-1-methyl-2-oxo-ethyl]-4-[[3-[1-(cyanomethyl)-3-(trifluoromethyl)pyrazol-4-yl]imidazo[1,2-a]pyrazin-8-yl]amino]-2-methyl-b enzamide formate], for which the IC90 turned out to be 0.721 µM.

`C[C@@H](NC(=O)c1ccc(Nc2nccn3c(-c4c[nH]nc4C(F)(F)F)cnc23)cc1Cl)C(=O)NC1CC(N)C1` (stereo partly drawn) [Example 92, N-[(2R)-1-[(3-aminocyclobutyl)amino]-1-oxopropan-2-yl]-2-chloro-4-[[3-[3-(trifluoromethyl)-1H-pyrazol-4-yl]imidazo[1,2-a]pyrazin-8-yl]amino]benzamide formate]: the IC90 is 0.947 µM.

For `CCc1cc(Nc2nccn3c(-c4c[nH]nc4C(F)(F)F)cnc23)ccc1C(=O)NCCNC(=O)[C@@H](N)CCCCN` [Example 221, N-[2-[[(2S)-2,6-diaminohexanoyl]amino]ethyl]-2-ethyl-4-[[3-[3-(trifluoromethyl)-1H-pyrazol-4-yl]imidazo[1,2-a]pyrazin-8-yl]amino]benzamide formate], the IC90 turned out to be 0.922 µM.

For `CCc1cc(Nc2nccn3c(-c4cn(C(C)C#N)nc4C(F)(F)F)cnc23)ccc1C(=O)NCCOCCCN` (stereo not drawn) [Example 639, N-(2-(3-aminopropoxy)ethyl)-4-((3-(1-(1-cyanoethyl)-3-(trifluoromethyl)-1H-pyrazol-4-yl)imidazo[1,2-a]pyrazin-8-yl)amino)-2-ethylbenzamide formate], the IC90 is 0.228 µM.

Turning to `CCc1cc(Nc2nccn3c(-c4c[nH]nc4C(F)(F)F)cnc23)ccc1C(=O)NCCCNC(=O)[C@H](C)N` [Example 652, (S)-N-(3-(2-aminopropanamido)propyl)-2-ethyl-4-((3-(3-(trifluoromethyl)-1H-pyrazol-4-yl)imidazo [1,2-a]pyrazin-8-yl)amino)benzamide formate], the IC90 was found to be 0.259 µM.

For the molecule `CCc1cc(Nc2nccn3c(-c4cn(CC(F)F)nc4C(F)(F)F)cnc23)ccc1C(=O)NCC(=O)N1CCC(N)CC1` [Example 666, N-[2-(4-amino-1-piperidyl)-2-oxo-ethyl]-4-[[3-[1-(2,2-difluoroethyl)-3-(trifluoromethyl)pyrazol-4-yl]imidazo[1,2-a]pyrazin-8-yl]amino]-2-ethyl-benzamide formate], the IC90 is 0.291 µM.

The same experiment, now with this note: Acinetobacter baumannii, ATCC17961, 16 h, strain ATCC 17961, OD600 growth over 16 h, read-out: A. baumannii ATCC 17961 IC90.
Consider `N[C@H]1CCN(C(=O)CNC(=O)c2ccc(Nc3nccn4c(-c5c[nH]nc5C(F)(F)F)cnc34)cc2Cl)C1` [Example 164, N-[2-[(3S)-3-aminopyrrolidin-1-yl]-2-oxoethyl]-2-chloro-4-[[3-[3-(trifluoromethyl)-1H-pyrazol-4-yl]imidazo[1,2-a]pyrazin-8-yl]amino]benzamide], for which the IC90 stood at 1.93 µM.

In the case of `CCc1cc(Nc2nccn3c(-c4cn(CC(F)F)nc4C(F)(F)F)cnc23)ccc1C(=O)NCCCNC(=O)[C@@H]1CCCN1` [Example 627, (S)-N-(3-(4-((3-(1-(2,2-difluoroethyl)-3-(trifluoromethyl)-1H-pyrazol-4-yl)imidazo[1,2-a]pyrazin-8-yl)amino)-2-ethylbenzamido)propyl) pyrrolidine-2-carboxamide], the IC90 worked out at 0.19 µM.

Take `C#CCn1cc(-c2cnc3c(Nc4ccc(C(=O)N5CCN(C(=O)[C@H](N)C(C)C)CC5)c(CC)c4)nccn23)c(C(F)F)n1` [Example 773, (R)-2-amino-1-(4-(4-((3-(3-(difluoromethyl)-1-(prop-2-yn-1-yl)-1H-pyrazol-4-yl)imidazo[1,2-a]pyrazin-8-yl)amino)-2-ethylbenzoyl)piperazin-1-yl)-3-methylbutan-1-one]: the IC90 amounted to 0.978 µM.

In the case of `CCc1cc(Nc2nccn3c(-c4c[nH]nc4C(F)(F)F)cnc23)ccc1C(=O)NCCOC[C@H](C)N` [Example 203, N-[2-[(2S)-2-aminopropoxy]ethyl]-2-ethyl-4-[[3-[3-(trifluoromethyl)-1H-pyrazol-4-yl]imidazo[1,2-a]pyrazin-8-yl]amino]benzamide], the IC90 stood at 0.102 µM.

For `N[C@H]1CCN(C(=O)c2ccc(Nc3nccn4c(-c5c[nH]nc5C(F)(F)F)cnc34)cc2Cl)C1` [Example 320, [(3S)-3-aminopyrrolidin-1-yl]-[2-chloro-4-[[3-[3-(trifluoromethyl)-1H-pyrazol-4-yl]imidazo[1,2-a]pyrazin-8-yl]amino]phenyl]methanone], the IC90 worked out at 0.705 µM.

Consider `CCc1cc(Nc2nccn3c(-c4c[nH]nc4C(F)(F)F)cnc23)ccc1C(=O)NCCNC(=O)[C@@H]1CCCN1` [Example 39, (2S)-N-[2-[[2-ethyl-4-[[3-[3-(trifluoromethyl)-1H-pyrazol-4-yl]imidazo[1,2-a]pyrazin-8-yl]amino]benzoyl]amino]ethyl] pyrrolidine-2-carboxamide], for which the IC90 was determined as 0.47 µM.

`CCc1cc(Nc2nccn3c(-c4cn(CC#N)nc4C(F)(F)F)cnc23)ccc1C(=O)NCCCNC(=O)[C@@H]1C[C@@H](O)CN1` [Example 754, (2S,4R)-N-(3-(4-((3-(1-(cyanomethyl)-3-(trifluoromethyl)-1H-pyrazol-4-yl)imidazo[1,2-a]pyrazin-8-yl)amino)-2-ethylbenzamido)propyl)-4-hydroxypyrrolidine-2-carboxamide]: the IC90 was determined as 0.671 µM.

Regarding `CCc1cc(Nc2nccn3c(-c4cn(CCC(C)(C)Cl)nc4C(F)(F)F)cnc23)ccc1C(=O)NCCOCCN` [Example 655, N-(2-(2-aminoethoxy)ethyl)-4-((3-(1-(3-chloro-3-methylbutyl)-3-(trifluoromethyl)-1H-pyrazol-4-yl)imidazo[1,2-a]pyrazin-8-yl)amino)-2-ethylbenzamide], the IC90 was determined as 0.266 µM.

With `CCc1cc(Nc2nccn3c(-c4c[nH]nc4C(F)(F)F)cnc23)ccc1C(=O)NCCNC(=O)N1CC[C@H](N)C1` [Example 576, (S)-3-amino-N-(2-(2-ethyl-4-((3-(3-(trifluoromethyl)-1H-pyrazol-4-yl)imidazo[1,2-a]pyrazin-8-yl)amino)benzamido)ethyl) pyrrolidine-1-carboxamide formate], the IC90 turned out to be 0.9 µM.

As for `CCc1cc(Nc2nccn3c(-c4cn(CCF)nc4C(F)(F)F)cnc23)ccc1C(=O)NCC1CC1N` (stereo not drawn) [Example 640, N-((2-aminocyclopropyl)methyl)-2-ethyl-4-((3-(1-(2-fluoroethyl)-3-(trifluoromethyl)-1H-pyrazol-4-yl)imidazo[1,2-a]pyrazin-8-yl)amino) benzamide formate], the IC90 worked out at 0.229 µM.

On to `CCc1cc(Nc2nccn3c(-c4cn(CC(F)F)nc4C(F)F)cnc23)ccc1C(=O)N[C@H]1C[C@@H](NC(=O)[C@@H]2C[C@@H](O)CN2)C1` [Example 552, (2S,4R)-N-((1s,3R)-3-(4-((3-(1-(2,2-difluoroethyl)-3-(difluoromethyl)-1H-pyrazol-4-yl)imidazo[1,2-a]pyrazin-8-yl)amino)-2-ethylbenzamido)cyclobutyl)-4-hydroxypyrrolidine-2-carboxamide], for which the IC90 was determined as 0.489 µM.

Take `CCc1cc(Nc2nccn3c(-c4cn(CC(F)F)nc4C(F)(F)F)cnc23)ccc1C(=O)N[C@H](C)CNC(=O)[C@@H]1CCCN1` [Example 649, (S)-N-((R)-2-(4-((3-(1-(2,2-difluoroethyl)-3-(trifluoromethyl)-1H-pyrazol-4-yl)imidazo[1,2-a]pyrazin-8-yl)amino)-2-ethylbenzamido)propyl)pyrrolidine-2-carboxamide]: the IC90 came out at 0.247 µM.

In the case of `N#CCn1cc(-c2cnc3c(Nc4ccc(C(=O)N5CCN(C(=O)[C@H]6CC[C@@H](N)C6)CC5)c(F)c4)nccn23)c(C(F)(F)F)n1` [Example 807, 2-(4-(8-((4-(4-((1S,3R)-3-aminocyclo-pentane-1-carbonyl)piperazin-1-carbonyl)-3-fluorophenyl)amino)imidazo [1,2-a]pyrazin-3-yl)-3-(trifluoromethyl)-1H-pyrazol-1-yl)acetonitrile hydrochloride], the IC90 stood at 0.31 µM.

With `O=C(c1ccc(Nc2nccn3c(-c4c[nH]nc4C(F)(F)F)cnc23)cc1Cl)N1CC2(CNC2)C1` [Example 111, [2-chloro-4-[[3-[3-(trifluoromethyl)-1H-pyrazol-4-yl]imidazo[1,2-a]pyrazin-8-yl]amino]phenyl]-(2,6-diazaspiro[3.3]heptan-2-yl)methanone], the IC90 was determined as 0.997 µM.

With `CCNC(=O)c1ccc(Nc2nccn3c(-c4cn(CC#N)nc4C(F)(F)F)cnc23)cc1CC` [Example 113, 4-[[3-[1-(cyanomethyl)-3-(trifluoromethyl)pyrazol-4-yl]imidazo[1,2-a]pyrazin-8-yl]amino]-N,2-diethylbenzamide], the IC90 is 0.234 µM.

In the case of `C#CCNC(=O)c1c(C)cc(Nc2nccn3c(-c4cn(Cc5nc(CC6CC6)no5)nc4C(F)(F)F)cnc23)cc1F` [Example 38, 4-[[3-[1-[[3-(cyclopropylmethyl)-1,2,4-oxadiazol-5-yl]methyl]-3-(trifluoromethyl)pyrazol-4-yl]imidazo[1,2-a]pyrazin-8-yl]amino]-2-fluoro-6-methyl-N-prop-2-ynylbenzamide], the IC90 amounted to 0.327 µM.

The same experiment, now with this note: strain ATCC 17961, OD600 growth over 16 h, read-out: A. baumannii ATCC 17961 IC90.
As to “4-[[3-[1-(2-cyanomethyl)-3-(trifluoromethyl)pyrazol-4-yl]imidazo[1,2-a]pyrazin-8-yl]amino]-2-ethyl-N-methylbenzamide [Example 337]”, the IC90 is 0.359 µM.
